According to the NIST ThermoML archive (doi:10.1016/j.jct.2006.03.010):

Assay: xn = mol fraction of the nth substance listed
Conditions: 101 kPa, Liquid; for speed of sound: Linear variable-path acoustic interferometer

ClC(Cl)Cl [trichloromethane] + CCO
Conditions	mass density, 298.15 K [kg/m3]	mass density, 308.15 K [kg/m3]	speed of sound, 298.15 K [m/s]	speed of sound, 308.15 K [m/s]	viscosity, 298.15 K [mPa·s]	viscosity, 308.15 K [mPa·s]
x1 = 0.0522	834.86	824.87	1129	1092	1.085	0.902
x1 = 0.1007	879.76	868.7	1114	1076	1.07	0.89
x1 = 0.1468	920.98	909.11	1101	1062	1.043	0.869
x1 = 0.2014	968.01	955.3	1085	1046	1.003	0.836
x1 = 0.2505	1008.24	994.85	1071	1034	0.956	0.803
x1 = 0.3005	1047.8	1033.7	1057	1022	0.901	0.764
x1 = 0.3491	1084.58	1069.92	1045	1011	0.86	0.732
x1 = 0.3999	1121.8	1106.5	1033	1000	0.809	0.696
x1 = 0.4505	1157.08	1141.59	1021	991	0.767	0.665
x1 = 0.5045	1193.09	1177.49	1011	982	0.73	0.64
x1 = 0.5509	1223.51	1207.46	1003	975	0.694	0.613
x1 = 0.6007	1254.55	1238.37	996	967	0.668	0.596
x1 = 0.6492	1284.3	1267.81	990	962	0.644	0.58
x1 = 0.7008	1314.71	1297.8	985	957	0.629	0.569
x1 = 0.7496	1342.79	1325.84	982	953	0.615	0.562
x1 = 0.8059	1374.26	1357.1	981	950	0.601	0.551
x1 = 0.8544	1400.99	1383.35	980	949	0.596	0.549
x1 = 0.8994	1425.35	1407.35	981	949	0.588	0.544
x1 = 0.9498	1452.14	1433.5	983	948	0.576	0.531
x1 = 1	1478.82	1459.45	985	950	0.556	0.513

ClC(Cl)Cl [trichloromethane] + CO
Conditions	mass density, 298.15 K [kg/m3]	mass density, 308.15 K [kg/m3]	speed of sound, 298.15 K [m/s]	speed of sound, 308.15 K [m/s]	viscosity, 298.15 K [mPa·s]	viscosity, 308.15 K [mPa·s]
x1 = 0.0501	852.42	842	1080	1048	0.587	0.523
x1 = 0.0959	907.6	896.56	1060	1029	0.612	0.545
x1 = 0.1501	967.31	955.55	1041	1010	0.635	0.564
x1 = 0.2007	1018.13	1005.77	1028	997	0.651	0.576
x1 = 0.2499	1063.89	1050.91	1017	986	0.657	0.584
x1 = 0.3015	1107.99	1094.32	1007	976	0.663	0.586
x1 = 0.3502	1146.56	1132.48	1000	969	0.66	0.588
x1 = 0.3966	1180.85	1166.26	994	963	0.658	0.584
x1 = 0.4498	1217.39	1202.34	989	958	0.651	0.582
x1 = 0.5047	1252.37	1236.78	984	954	0.641	0.572
x1 = 0.5506	1279.51	1263.63	981	950	0.633	0.569
x1 = 0.6033	1308.68	1292.64	979	948	0.619	0.56
x1 = 0.6515	1333.97	1317.33	977	946	0.612	0.552
x1 = 0.7032	1359.31	1342.39	976	945	0.601	0.55
x1 = 0.751	1381.31	1363.96	976	944	0.592	0.536
x1 = 0.7987	1402.09	1384.31	976	944	0.583	0.531
x1 = 0.85	1423.32	1405.26	977	945	0.574	0.523
x1 = 0.902	1443.49	1425.07	979	946	0.567	0.516
x1 = 0.9505	1461.44	1442.54	982	948	0.561	0.515
x1 = 1	1478.82	1459.45	985	950	0.556	0.513
